{
  "source": "patent US20040006103A1",
  "about": "“Use of chloroquine, hydroxychloroquine and 4 amino-quinolinic derivatives to obtain a drug for the anti retroviral therapy, active towards HIV sensitive strains and towards HIV strains which are resistant to both nucleosidic and non-nucleosidic reverse transcriptase inhibitors and to proteases …” (VALPHARMA S.A., priority 2002, published 2004)",
  "key": {"[1]": {"tested_on": "HIV", "conditions": "continuous cultures of cells from the lymphocyte system; Tsai (1990); cited from earlier work"}, "[2]": {"tested_on": "HIV-1 clinical isolated, characterised by mutations in the protease gene inducing geno-phenotypic resistance to IDV", "assay": "p24 production susceptibility test (ACTG protocol), Table 9", "type": "cell-based", "conditions": "for EC50: Human immunodeficiency virus 1, PBMC; for S.I. CQ / S.I. HCQ: I.C.50/E.C.50; for Fen. CQ (fold) / Fen. HCQ (fold): ratio to HIV-IIIB", "from_the_text": "For the phenotype of the nucleosidic, non-nucleosidic and proteases inhibitors was utilised a method which consider the use of human PBMC and the protocol standardised by the AIDS Clinical Trials Group, after verifying the genotype by sequence analysis.\nIn order to assay in vitro the susceptibility to chloroquine and hydroxychloroquine of the viral strains, it was used the protocol of the ACTG which is characterised by the measure, of the production of antigen p24 in strongly infected cells.\nThe susceptibility of the viral strains to chemotherapics was determined in cell cultures, prepared in 96 wells microplates, using, for the infection, 0.1 MOI.\nThe supernatant of the infected cultures (either in absence or in presence of different concentrations of chemotherapic) were tested for the production of p24 after 7 days, using an ELISA test which is commercially available.\nThe concentrations of chloroquine and hydroxychloroquine tested ranged from 0.5 to 15 uM. At the same time non-infected cells were incubated with concentrations of chloroquine and hydroxychloroquine ranging from 0 to 50 uM to evaluate the toxicity of the compound.\nAfter 4 day from the infection, half the cellular medium was replaced with a medium containing the corresponding dilution of chloroquine and hydroxychloroquine. The percentage of inhibition of the HIV replication, induced by chloroquine and hydroxychloroquine, was determined, after 7 day from the infection, comparing the levels of p24 of this cultures and that of the control, infected and not treated with chloroquine and hydroxychloroquine.\nTherefore, the E.C.50 of chloroquine and hydroxychloroquine expresses the concentration of chemotherapic that inhibits the 50% of production of p24 and the values were calculated using linear and non linear regression analysis (the significativity for the non linear regression was R^2>0.95).\nIn the same experimental conditions and in the same day, but with similar concentrations of chloroquine and hydroxychloroquine, it was evaluated the vitality of the infect cell cultures, and this was expressed as I.C.50.\nI.C.50 (Inhibitory Concentration) indicates the concentration of the chemotherapic agent inhibiting the vitality of the cell cultures at a rate of 50%, when there is not infection."}, "[3]": {"tested_on": "HIV", "conditions": "in vitro, cited from earlier work"}, "[4]": {"tested_on": "HIV", "conditions": "cited from earlier work"}, "[5]": {"conditions": "plasmatic concentrations 7 to 15 microM, prolonged over 18-24 months; Lange (1994); cited from earlier work"}, "[6]": {"tested_on": "HIV-1", "conditions": "800 mg/day, 8 weeks, Sperber et al. (1995), cited from earlier work"}, "[7]": {"tested_on": "HIV", "conditions": "800 mg/day, compared to placebo; Sperber et al. 1997; cited from earlier work"}, "[8]": {"tested_on": "HIV-1", "conditions": "association hydroxychloroquine (400 mg/day) plus HU plus ddI, 48 weeks, Paton et al. 2002, cited from earlier work"}, "[9]": {"tested_on": "HIV-1", "conditions": "Sperber (1993), cited from earlier work"}, "[10]": {"conditions": "PBMC, Gen. K20R E35D M36I I54V V82T"}},
  "note": "Like-named read-outs stand apart in the source and are kept apart here.",
  "data": [
    {"compound": "CCN(CC)CCCC(C)Nc1ccnc2cc(Cl)ccc12", "note": "(centres unmarked) [CQ, chloroquine]", "values": [
      {"measurement": "inhibition of the HIV replicative cycle", "setting": "[1]", "value": "inhibits the HIV replicative cycle"},
      {"measurement": "EC50", "setting": "[2]; PBMC, Gen. G48V V82A, read-out: E.C.50 CQ", "value": 2.5, "unit": "µM"},
      {"measurement": "EC50", "setting": "[2]; PBMC, Gen. I84V L90M, read-out: E.C.50 CQ", "value": 2.2, "unit": "µM"},
      {"measurement": "EC50", "setting": "[2]; PBMC, Gen. K20R E35D M36I I54V V82T, read-out: E.C.50 CQ", "value": 1.8, "unit": "µM"},
      {"measurement": "EC50", "setting": "[2]; PBMC, Gen. V82F L90M, read-out: E.C.50 CQ", "value": 2.8, "unit": "µM"},
      {"measurement": "EC50", "setting": "[2]; read-out: E.C.50 CQ (uM), PBMC, Gen. L10R M46I L63P V82T", "value": 1.5, "unit": "µM"},
      {"measurement": "S.I. CQ", "setting": "[2]; PBMC, Gen. G48V V82A", "value": 3.6},
      {"measurement": "Fen. CQ (fold)", "setting": "[2]; PBMC, Gen. G48V V82A", "value": 1.3, "unit": "X fold"},
      {"measurement": "S.I. CQ", "setting": "[2]; PBMC, Gen. I84V L90M", "value": 4},
      {"measurement": "Fen. CQ (fold)", "setting": "[2]; PBMC, Gen. I84V L90M", "value": 1.2, "unit": "X fold"},
      {"measurement": "S.I. CQ", "setting": "[2]; [10]", "value": 5.5},
      {"measurement": "Fen. CQ (fold)", "setting": "[2]; [10]", "value": 1, "unit": "X fold"},
      {"measurement": "S.I. CQ", "setting": "[2]; PBMC, Gen. L10R M46I L63P V82T", "value": 5.5},
      {"measurement": "Fen. CQ (fold)", "setting": "[2]; PBMC, Gen. L10R M46I L63P V82T", "value": 1, "unit": "X fold"},
      {"measurement": "S.I. CQ", "setting": "[2]; PBMC, Gen. V82F L90M", "value": 3.4},
      {"measurement": "Fen. CQ (fold)", "setting": "[2]; PBMC, Gen. V82F L90M", "value": 1.5, "unit": "X fold"}
    ]},
    {"compound": "CCN(CCO)CCCC(C)Nc1ccnc2cc(Cl)ccc12", "note": "(centres unmarked) [HCQ, hydroxychloroquine]", "values": [
      {"measurement": "effect on inhibition of the HIV replication when added to ddI plus HU", "setting": "[3]; Boelaert et al. (1999)", "value": "extra effect"},
      {"measurement": "effect when added to the association AZT plus HU", "setting": "[3]; Boelaert et al. (2001)", "value": "additional effect"},
      {"measurement": "negative events", "setting": "[4]; 16 weeks, hydroxychloroquine 800 mg/day, AZT 500 mg/day", "value": "no negative events were observed"},
      {"measurement": "patients with an increase of plasmatic viremia", "setting": "[4]; at the 8th and at the 16th week", "value": "nobody"},
      {"measurement": "retinopathy", "setting": "[5]", "value": "rarely induced retinopathy"},
      {"measurement": "quantity of HIV-RNA", "setting": "[6]; asymptomatic HIV-1 positive patients", "value": "significantly decreased"},
      {"measurement": "negative events", "setting": "[6]", "value": "No negative event was observed"},
      {"measurement": "EC50", "setting": "[2]; PBMC, Gen. G48V V82A, read-out: E.C.50 HCQ", "value": 2.8, "unit": "µM"},
      {"measurement": "EC50", "setting": "[2]; PBMC, Gen. I84V L90M, read-out: E.C.50 HCQ", "value": 1.8, "unit": "µM"},
      {"measurement": "EC50", "setting": "[2]; PBMC, Gen. K20R E35D M36I I54V V82T, read-out: E.C.50 HCQ", "value": 2.2, "unit": "µM"},
      {"measurement": "EC50", "setting": "[2]; PBMC, Gen. V82F L90M, read-out: E.C.50 HCQ", "value": 3.3, "unit": "µM"},
      {"measurement": "EC50", "setting": "[2]; read-out: E.C.50 HCQ (uM), PBMC, Gen. L10R M46I L63P V82T", "value": 1.8, "unit": "µM"},
      {"measurement": "S.I. HCQ", "setting": "[2]; PBMC, Gen. G48V V82A", "value": 3},
      {"measurement": "Fen. HCQ (fold)", "setting": "[2]; PBMC, Gen. G48V V82A", "value": 1.5, "unit": "X fold"},
      {"measurement": "S.I. HCQ", "setting": "[2]; PBMC, Gen. I84V L90M", "value": 5.5},
      {"measurement": "Fen. HCQ (fold)", "setting": "[2]; PBMC, Gen. I84V L90M", "value": 1, "unit": "X fold"},
      {"measurement": "S.I. HCQ", "setting": "[2]; [10]", "value": 4.5},
      {"measurement": "Fen. HCQ (fold)", "setting": "[2]; [10]", "value": 1.2, "unit": "X fold"},
      {"measurement": "S.I. HCQ", "setting": "[2]; PBMC, Gen. L10R M46I L63P V82T", "value": 5},
      {"measurement": "Fen. HCQ (fold)", "setting": "[2]; PBMC, Gen. L10R M46I L63P V82T", "value": 0.8, "unit": "X fold"},
      {"measurement": "S.I. HCQ", "setting": "[2]; PBMC, Gen. V82F L90M", "value": 2.5},
      {"measurement": "Fen. HCQ (fold)", "setting": "[2]; PBMC, Gen. V82F L90M", "value": 1.7, "unit": "X fold"},
      {"measurement": "plasmatic HIV-RNA", "setting": "[7]", "value": "significant reduction"},
      {"measurement": "decrement of plasmatic HIV-RNA", "setting": "[8]; 22 patients", "value": 1.3, "unit": "logs"},
      {"measurement": "tolerability", "setting": "[8]", "value": "well tolerated"},
      {"measurement": "production of infecting viral particles", "setting": "[9]; CEM cells used as target", "value": "almost completely inhibits"},
      {"measurement": "inhibition of HIV-1 replication", "setting": "[9]; PBMC, U-937, CEM", "value": "> 75", "unit": "%"},
      {"measurement": "toxic effect in cell cultures", "setting": "[9]; concentration suitable for inhibit viral replication", "value": "no toxic effect was found"}
    ]}
  ]
}
